± gives the expanded uncertainty stated by the source.
How the values were obtained:
[1] = 101.33 kPa, Liquid, Vibrating tube method
[2] = activity coefficient (dimensionless); of the first substance listed, at infinite dilution; xn = mol fraction of the nth substance listed; details: 101 kPa, Liquid, Chromatography, x1 = 0

Compound | mass density ([1]; 288.15 K) | mass density ([1]; 298.15 K) | mass density ([1]; 308.15 K) | mass density ([1]; 318.15 K) | mass density ([1]; 328.15 K) | mass density ([1]; 338.15 K) | mass density ([1]; 348.15 K) | mass density ([1]; 358.15 K) | mass density ([1]; 368.15 K) | activity coefficient ([2]; 318.15 K) | activity coefficient ([2]; 328.15 K) | activity coefficient ([2]; 338.15 K) | activity coefficient ([2]; 348.15 K) | activity coefficient ([2]; 358.15 K) | activity coefficient ([2]; 368.15 K)
CCCC[N+]1(C)CCOCC1.N#C[C-](C#N)C#N [4-butyl-4-methylmorpholinium tricyanomethanide] | 1073.6 ± 2.2 kg/m3 | 1067.03 ± 2.2 kg/m3 | 1060.79 ± 2.2 kg/m3 | 1054.69 ± 2.2 kg/m3 | 1048.61 ± 2.1 kg/m3 | 1042.61 ± 2.1 kg/m3 | 1036.67 ± 2.1 kg/m3 | 1030.77 ± 2.1 kg/m3 | 1024.3 ± 2.1 kg/m3 |  |  |  |  |  | 
CCO [ethanol] + CCCC[N+]1(C)CCOCC1.N#C[C-](C#N)C#N |  |  |  |  |  |  |  |  |  | 1.26 ± 0.08 | 1.19 ± 0.08 | 1.12 ± 0.07 | 1.06 ± 0.07 | 1.01 ± 0.06 | 0.965 ± 0.061
CCOC(C)=O [ethyl acetate] + CCCC[N+]1(C)CCOCC1.N#C[C-](C#N)C#N |  |  |  |  |  |  |  |  |  | 1.88 ± 0.13 | 1.9 ± 0.13 | 1.92 ± 0.13 | 1.93 ± 0.13 | 1.96 ± 0.13 | 1.98 ± 0.13
CCc1ccccc1 [ethylbenzene] + CCCC[N+]1(C)CCOCC1.N#C[C-](C#N)C#N |  |  |  |  |  |  |  |  |  | 3.74 ± 0.25 | 3.74 ± 0.25 | 3.75 ± 0.26 | 3.75 ± 0.26 | 3.75 ± 0.26 | 3.75 ± 0.26
CCCCCCC [heptane] + CCCC[N+]1(C)CCOCC1.N#C[C-](C#N)C#N |  |  |  |  |  |  |  |  |  | 84 ± 5.8 | 76.8 ± 5.3 | 69.6 ± 4.8 | 63.3 ± 4.3 | 58.7 ± 4 | 53.7 ± 3.7
C=CCCCC [hex-1-ene] + CCCC[N+]1(C)CCOCC1.N#C[C-](C#N)C#N |  |  |  |  |  |  |  |  |  | 22.6 ± 1.5 | 21.3 ± 1.5 | 20 ± 1.4 | 19.1 ± 1.3 | 18.2 ± 1.2 | 17.4 ± 1.2
CCCCCC [hexane] + CCCC[N+]1(C)CCOCC1.N#C[C-](C#N)C#N |  |  |  |  |  |  |  |  |  | 56.5 ± 3.9 | 51.1 ± 3.5 | 46.7 ± 3.2 | 43.2 ± 3 | 40.3 ± 2.8 | 37.2 ± 2.5
CO [methanol] + CCCC[N+]1(C)CCOCC1.N#C[C-](C#N)C#N |  |  |  |  |  |  |  |  |  | 0.825 ± 0.053 | 0.79 ± 0.051 | 0.762 ± 0.05 | 0.729 ± 0.048 | 0.704 ± 0.047 | 0.677 ± 0.046
CCCC(=O)OC [methyl butanoate] + CCCC[N+]1(C)CCOCC1.N#C[C-](C#N)C#N |  |  |  |  |  |  |  |  |  | 2.42 ± 0.16 | 2.46 ± 0.17 | 2.49 ± 0.17 | 2.51 ± 0.17 | 2.54 ± 0.17 | 2.56 ± 0.17
COC(C)=O [methyl ethanoate] + CCCC[N+]1(C)CCOCC1.N#C[C-](C#N)C#N |  |  |  |  |  |  |  |  |  | 1.2 ± 0.08 | 1.23 ± 0.08 | 1.24 ± 0.08 | 1.26 ± 0.08 | 1.29 ± 0.08 | 1.3 ± 0.08
CCC(=O)OC [methyl propanoate] + CCCC[N+]1(C)CCOCC1.N#C[C-](C#N)C#N |  |  |  |  |  |  |  |  |  | 1.64 ± 0.11 | 1.67 ± 0.11 | 1.7 ± 0.11 | 1.73 ± 0.12 | 1.76 ± 0.12 | 1.79 ± 0.12
CC1CCCCC1 [methylcyclohexane] + CCCC[N+]1(C)CCOCC1.N#C[C-](C#N)C#N |  |  |  |  |  |  |  |  |  | 35.2 ± 2.4 | 32.3 ± 2.2 | 29.7 ± 2 | 27.6 ± 1.9 | 25.7 ± 1.8 | 24 ± 1.6
CCCCCCCCC [nonane] + CCCC[N+]1(C)CCOCC1.N#C[C-](C#N)C#N |  |  |  |  |  |  |  |  |  | 187 ± 13 | 168 ± 12 | 151 ± 10 | 137 ± 9 | 126 ± 9 | 115 ± 8
C=CCCCCCC [oct-1-ene] + CCCC[N+]1(C)CCOCC1.N#C[C-](C#N)C#N |  |  |  |  |  |  |  |  |  | 52.7 ± 3.6 | 49.1 ± 3.4 | 45.7 ± 3.1 | 43 ± 2.9 | 40.6 ± 2.8 | 38.1 ± 2.6
CCCCCCCC [octane] + CCCC[N+]1(C)CCOCC1.N#C[C-](C#N)C#N |  |  |  |  |  |  |  |  |  | 125 ± 9 | 113 ± 8 | 102 ± 7 | 93.4 ± 6.4 | 86.5 ± 5.9 | 78.6 ± 5.4
CCCC(C)=O [pentan-2-one] + CCCC[N+]1(C)CCOCC1.N#C[C-](C#N)C#N |  |  |  |  |  |  |  |  |  | 1.44 ± 0.09 | 1.47 ± 0.1 | 1.49 ± 0.1 | 1.5 ± 0.1 | 1.53 ± 0.1 | 1.54 ± 0.1
CCC(=O)CC [pentan-3-one] + CCCC[N+]1(C)CCOCC1.N#C[C-](C#N)C#N |  |  |  |  |  |  |  |  |  | 1.42 ± 0.09 | 1.44 ± 0.09 | 1.47 ± 0.1 | 1.49 ± 0.1 | 1.51 ± 0.1 | 1.54 ± 0.1
CCCCC [pentane] + CCCC[N+]1(C)CCOCC1.N#C[C-](C#N)C#N |  |  |  |  |  |  |  |  |  | 39.7 ± 2.7 | 35.5 ± 2.4 | 32.2 ± 2.2 | 29.8 ± 2 | 27.7 ± 1.9 | 26.2 ± 1.8
CCCO [propan-1-ol] + CCCC[N+]1(C)CCOCC1.N#C[C-](C#N)C#N |  |  |  |  |  |  |  |  |  | 1.62 ± 0.11 | 1.52 ± 0.1 | 1.43 ± 0.09 | 1.35 ± 0.09 | 1.29 ± 0.08 | 1.23 ± 0.08
CC(C)O [propan-2-ol] + CCCC[N+]1(C)CCOCC1.N#C[C-](C#N)C#N |  |  |  |  |  |  |  |  |  | 1.71 ± 0.11 | 1.59 ± 0.11 | 1.5 ± 0.1 | 1.4 ± 0.09 | 1.33 ± 0.09 | 1.25 ± 0.08
c1ccncc1 [pyridine] + CCCC[N+]1(C)CCOCC1.N#C[C-](C#N)C#N |  |  |  |  |  |  |  |  |  | 0.733 ± 0.049 | 0.748 ± 0.049 | 0.758 ± 0.05 | 0.766 ± 0.05 | 0.766 ± 0.05 | 0.788 ± 0.051
C=Cc1ccccc1 [styrene] + CCCC[N+]1(C)CCOCC1.N#C[C-](C#N)C#N |  |  |  |  |  |  |  |  |  | 1.82 ± 0.12 | 1.86 ± 0.13 | 1.9 ± 0.13 | 1.93 ± 0.13 | 1.96 ± 0.13 | 1.99 ± 0.14
C1CCOC1 [tetrahydrofuran] + CCCC[N+]1(C)CCOCC1.N#C[C-](C#N)C#N |  |  |  |  |  |  |  |  |  | 1.12 ± 0.07 | 1.15 ± 0.07 | 1.17 ± 0.07 | 1.18 ± 0.08 | 1.21 ± 0.08 | 1.22 ± 0.08
c1ccsc1 [thiophene] + CCCC[N+]1(C)CCOCC1.N#C[C-](C#N)C#N |  |  |  |  |  |  |  |  |  | 1.01 ± 0.06 | 1.04 ± 0.07 | 1.06 ± 0.07 | 1.08 ± 0.07 | 1.1 ± 0.07 | 1.12 ± 0.07
Cc1ccccc1 [toluene] + CCCC[N+]1(C)CCOCC1.N#C[C-](C#N)C#N |  |  |  |  |  |  |  |  |  | 2.3 ± 0.16 | 2.33 ± 0.16 | 2.36 ± 0.16 | 2.38 ± 0.16 | 2.41 ± 0.16 | 2.43 ± 0.17
O [water] + CCCC[N+]1(C)CCOCC1.N#C[C-](C#N)C#N |  |  |  |  |  |  |  |  |  | 1.03 ± 0.06 | 0.971 ± 0.061 | 0.916 ± 0.058 | 0.86 ± 0.055 | 0.819 ± 0.053 | 0.78 ± 0.051
